Where “and” joins values, the source holds several entries; their conditions need not be identical. Identical values can stand only once.
melting point | SMILES
81 °C | Nc1c(Br)cccc1Br [2,6-dibromoaniline]
113 °C | Cc1cc(Cl)nc(Cl)c1C#N [2,6-dichloro-4-methylnicotinonitrile]
154 °C | O=C(O)c1cc(F)c(Cl)nc1Cl [2,6-dichloro-5-fluoronicotinic acid]
71 °C and 71.5 °C | O=Cc1c(Cl)cccc1Cl [2,6-dichlorobenzaldehyde] [listing 1 of 2 here]
71 °C | O=Cc1c(Cl)cccc1Cl [2,6-dichlorobenzaldehyde] [listing 2 of 2 here]
160 °C | O=C(O)Cc1c(Cl)cccc1Cl [2,6-dichlorophenylacetic acid]
2 °C | Cc1c(Cl)cccc1Cl [2,6-dichlorotoluene]
-54 °C | CC(C)c1cccc(C(C)C)c1N [2,6-diisopropylaniline]
153 °C | COc1ccc2cc(OC)ccc2c1 [2,6-dimethoxynaphthalene]
129 °C | COc1ccc(B(O)O)c(OC)n1 [2,6-dimethoxypyridine-3-boronic acid]
40 °C | COc1cccc(OC)c1C [2,6-dimethoxytoluene]
-10 °C | CC(C)CCCC(C)(C)O [2,6-dimethyl-2-heptanol]
46 °C | Cc1cccc(C)c1O [2,6-dimethylphenol]
41 °C | Cc1cncc(C)n1 [2,6-dimethylpyrazine]
186 °C | Oc1ccc2ccc(O)cc2c1 [2,7-dihydroxynaphthalene]
270 °C | CC(C)(C)C(=O)Nc1ccccc1B(O)O [2-(2,2,2-trimethylacetamido)benzeneboronic acid]
270 °C | O=C1CCC(N2C(=O)c3ccccc3C2=O)C(=O)N1 (stereo not given) [2-(2,6-Dioxopiperidin-3-yl)-1H-isoindole-1,3(2H)-dione]
160 °C | Cc1ncc([N+](=O)[O-])n1CCO [2-(2-Methyl-5-nitro-1H-imidazol-1-yl)ethanol]
107 °C | Nc1ccccc1NNc1ccccc1 [2-(2-phenylhydrazino)aniline]
77.5 °C | CC(C)Cc1ccc(C(C)C(=O)O)cc1 (stereo not given) [2-(4-Isobutylphenyl)propanoic acid]
97 °C | Nc1ccccc1N1CCOCC1 [2-(4-morpholinyl)aniline]

melting point | SMILES
156 °C | O=C(O)CSc1cccc2cccc(Cl)c12 [2-(8-chloro-1-naphthylthio)acetic acid]
199 °C | OCc1ccccc1O[C@@H]1O[C@H](CO)[C@@H](O)[C@H](O)[C@H]1O [2-(Hydroxymethyl)phenyl beta-D-glucopyranoside]
199 °C | OCc1ccccc1OC1OC(CO)C(O)C(O)C1O (stereo not given) [2-(Hydroxymethyl)phenyl hexopyranoside]
92 °C | Cc1ccccc1-c1ccccc1P(C(C)(C)C)C(C)(C)C [2-(di-tert-butylphosphino)-2'-methylbiphenyl]
-9 °C | CCNCCO [2-(ethylamino)ethanol]
48 °C | CS(=O)(=O)c1cccs1 [2-(methylsulfonyl)thiophene]
52 °C | Cc1ccc(S(=O)(=O)CCO)cc1 [2-(p-toluenesulfonyl)ethanol]
55 °C | Cc1ccc(Oc2ccccc2C=O)cc1 [2-(p-tolyloxy)benzaldehyde]
154 °C | NC(=O)c1ccccc1OC(F)(F)F [2-(trifluoromethoxy)benzamide]
119 °C | OB(O)c1ccccc1OC(F)(F)F [2-(trifluoromethoxy)benzeneboronic acid]
-30 °C and -29 °C | Nc1ccccc1C(F)(F)F [2-(trifluoromethyl)aniline]
300 °C | NCCS(=O)(=O)O [2-Aminoethanesulfonic acid]
70.5 °C | C=C(CC1c2ccccc2C(=O)N1Cc1ccccc1)c1ccccc1 (stereo not given) [2-Benzyl-3-(2-phenyl-2-propenyl)isoindolin-1-one]
149 °C | O=C(O)c1ccccc1Br [2-Bromobenzoic acid]
102 °C | CSC(SC)=C(C#N)C(N)=O [2-Cyano-3,3-bis(methylsulfanyl)acrylamide]
-94 °C | CCOC(C)(C)C [2-Ethoxy-2-methylpropane]
-90 °C | CCOCCO [2-Ethoxyethanol]
26 °C | CCCCCCCCCCCCCCCCC1CO1 (stereo not given) [2-Hexadecyloxirane]
135 °C | O=C(c1ccccc1)C(O)c1ccccc1 (stereo not given) [2-Hydroxy-1,2-diphenylethanone]
-38 °C | CC(C)(C)I [2-Iodo-2-methylpropane]
162 °C | O=C(O)c1ccccc1I [2-Iodobenzoic acid]

melting point | SMILES
28 °C | COc1ccccc1O [2-Methoxyphenol]
206 °C | Cc1c(C(=O)O)cc([N+](=O)[O-])cc1[N+](=O)[O-] [2-Methyl-3,5-dinitrobenzoic acid]
-80 °C | CCCCCCC(C)C [2-Methyloctane]
-67 °C | CC(C)(C)N [2-Methylpropan-2-amine]
122 °C | Oc1ccc2ccccc2c1 [2-Naphthol]
147 °C | O=C(O)c1ccccc1[N+](=O)[O-] [2-Nitrobenzoic acid]
159 °C | O=C1OC(c2ccccc2)=NC1=Cc1ccco1 [2-Oxazolin-5-one, 4-furfurylidene-2-phenyl-]
143 °C | O=C1OC(c2ccccc2)=NC1=Cc1ccc(-c2ccccc2)o1 [2-Phenyl-4-(5-phenyl-furan-2-ylmethylene)-4H-oxazol-5-one]
-27 °C | OCCc1ccccc1 [2-Phenyl-Ethanol]
129 °C | O=C1C=C(NCCc2ccccn2)C(=O)c2ccccc21 [2-[(2-pyridin-2-ylethyl)amino]naphthalene-1,4-dione]
200 °C | CC(=O)Nc1ccc([N+](=O)[O-])cn1 [2-acetamido-5-nitropyridine]
203 °C | CC(=O)Nc1nccs1 [2-acetamidothiazole]
46 °C | CC(=O)c1ccc(Cl)s1 [2-acetyl-5-chlorothiophene]
54 °C | CC(=O)c1ccc2ccccc2c1 [2-acetylnaphthalene]
-68 °C | CC(C)(C)N [2-amino-2-methylpropane]
47 °C | CCc1ccc(C)nc1N [2-amino-3-ethyl-6-methylpyridine]
170 °C | Nc1ncccc1O [2-amino-3-hydroxypyridine]
182 °C | Nc1cc(F)c(F)cc1C(=O)O [2-amino-4,5-difluorobenzoic acid]
184 °C | Nc1nc(-c2ccc(Br)cc2)cs1 [2-amino-4-(4-bromophenyl)thiazole]
132 °C | CCSc1nnc(N)s1 [2-amino-5-ethylthio-1,3,4-thiadiazole]
248 °C | Nc1nc2ccc([N+](=O)[O-])cc2s1 [2-amino-6-nitrobenzothiazole]

melting point | SMILES
-104 °C | CCC(C)N (stereo not given) [2-aminobutane]
129 °C | O=C(O)c1ccccc1C(=O)c1ccccc1 [2-benzoylbenzoic acid]
158 °C | O=C(O)C(=Cc1ccccc1)Cc1ccccc1 [2-benzyl-3-phenylacrylic acid]
146 °C | OB(O)c1cccnc1OCc1ccccc1 [2-benzyloxypyridine-3-boronic acid]
-16 °C | CC(C)(C)Br [2-bromo-2-methylpropane]
25 °C | CC(Br)C(C)(C)C (stereo not given) [2-bromo-3,3-dimethylbutane]
51 °C | CCN(CC)c1ccc(C(=O)CBr)cc1 [2-bromo-4'-(diethylamino)acetophenone]
14 °C | Cc1ccc(N)c(Br)c1 [2-bromo-4-methylaniline] [listing 1 of 2 here]
15 °C | Cc1ccc(N)c(Br)c1 [2-bromo-4-methylaniline] [listing 2 of 2 here]
76 °C | Cc1ccc([N+](=O)[O-])cc1Br [2-bromo-4-nitrotoluene]
61 °C | OCc1ccnc(Br)c1 [2-bromo-4-pyridinemethanol]
46 °C | FC(F)(F)c1ccc(Br)nc1 [2-bromo-5-(trifluoromethyl)pyridine]
40 °C | Cc1c(Br)cccc1[N+](=O)[O-] [2-bromo-6-nitrotoluene]
198 °C | Brc1nc2ccccc2[nH]1 [2-bromobenzimidazole]
148 °C | O=C(O)c1ccccc1Br [2-bromobenzoic acid]
146 °C | OB(O)c1cc2ccccc2nc1Br [2-bromoquinoline-3-boronic acid]
-140 °C | CCC(C)S (stereo not given) [2-butanethiol]
57 °C | OCC#CCO [2-butyne-1,4-diol]

SMILES | melting point
Cc1c(N)cccc1N [2,6-diaminotoluene] | 105 °C
CC(C)c1cccc(C(C)C)c1O [2,6-diisopropylphenol] | 18 °C
Cc1cccc(C)c1N [2,6-dimethylaniline] | 11 °C
[C-]#[N+]c1c(C)cccc1C [2,6-dimethylphenyl isocyanide] | 74 °C
Nc1c([N+](=O)[O-])cccc1[N+](=O)[O-] [2,6-dinitroaniline] | 133 °C
COc1ccc(CCN)cc1OC [2-(3,4-dimethoxyphenyl)ethylamine] | 11 °C
CN(C)CCO [2-(Dimethylamino)ethanol] | -70 °C
COc1ccc(C=C[N+](=O)[O-])cc1OCc1ccccc1 [2-(benzyloxy)-1-methoxy-4-(2-nitrovinyl)benzene] | 120 °C
CN(C)CCO [2-(dimethylamino)ethanol] | -60 °C
CC(=O)Oc1ccccc1C(=O)O [2-Acetoxybenzoic acid] | 139 °C
OCCSSCCO [2-Hydroxyethyl Disulfide] | 26 °C
Oc1ccccc1I [2-Iodophenol] | 38.5 °C
Cc1ccc([N+](=O)[O-])cc1N [2-Methyl-5-nitroaniline] | 108 °C
O=[N+]([O-])c1cc(Cl)ccc1O [2-Nitro-4-chlorophenol] | 89 °C
CC(=O)OCC(=O)c1ccccc1 [2-acetoxy_acetophenone] | 89 °C
C=CCc1ccccc1O [2-allylphenol] | -6 °C
Brc1ccccc1-c1ccccc1 [2-bromobiphenyl] | 2 °C
Brc1ccc2ccccc2c1 [2-bromonaphthalene] | 55 °C
CC(C)Br [2-bromopropane] | -89 °C

From the Bradley open melting point set (2014)
